Reference: patent US20230278972A1, “SUBSTITUTED HALOALKYL SULFONANILIDE HERBICIDES” (FMC Corporation, priority 2020, published 2023)

Columns and labels:
Format in all cases: in vivo
[1] = test system: blackgrass (Alopecurus myosuroides); assay: Test A postemergence, blackgrass; conditions: Postemergence
How it was run: (§1)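 Pots: loam soil/sand blend. Pre: directed soil spray at planting. Post: plants 2–10 cm, 1–2 leaf stage. Formulation: non-phytotoxic solvent + surfactant.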

[2] = test system: barnyardgrass (Echinochloa crus-galli); assay: Test A preemergence, barnyardgrass; conditions: Preemergence; for Barnyardgrass plant response rating: 125 g ai/ha, visual injury on 0 to 100 scale (0 no effect, 100 complete control), approximately 10 days; for Plant response rating, Barnyardgrass: 0 to 100 scale (0 no effect, 100 complete control)
How it was run: as §1

kochia (Bassia scoparia) [3] = assay: Test A preemergence, kochia; conditions: Preemergence; for Kochia plant response rating: 125 g ai/ha, visual injury on 0 to 100 scale (0 no effect, 100 complete control), approximately 10 days; for Plant response rating, Kochia: 0 to 100 scale (0 no effect, 100 complete control)
How it was run: as §1

[4] = test system: ragweed (common ragweed, Ambrosia artemisiifolia); assay: Test A postemergence, ragweed; conditions: Postemergence
How it was run: as §1

[5] = test system: pigweed (Amaranthus retroflexus); assay: Test A preemergence, pigweed; conditions: for Pigweed plant response rating: 125 g ai/ha, visual injury on 0 to 100 scale (0 no effect, 100 complete control), approximately 10 days; for Plant response rating, Pigweed: 0 to 100 scale (0 no effect, 100 complete control)
How it was run: (§2)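 Preemergence: pigweed seeds in loam soil–sand blend received a directed soil spray of test chemicals in a non-phytotoxic solvent with surfactant. Postemergence: barnyardgrass, wheat and galium in pots of the same soil, 2 to 10 cm tall at one- to two-leaf stage, sprayed with the same formulation.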

corn (Zea mays) = assay: Test A postemergence, corn; conditions: Postemergence
How it was run: as §1

[6] = test system: Foxtail, Giant (giant foxtail, Setaria faberi); assay: Test A postemergence, Foxtail, Giant; conditions: Postemergence
How it was run: as §1

[7] = test system: barnyardgrass (Echinochloa crus-galli); assay: Test A postemergence, barnyardgrass; conditions: Postemergence
How it was run: as §2

[8] = test system: Foxtail, Giant (giant foxtail, Setaria faberi); assay: Test A preemergence, Foxtail, Giant; conditions: Preemergence; for Foxtail, Giant plant response rating: 125 g ai/ha, visual injury on 0 to 100 scale (0 no effect, 100 complete control), approximately 10 days; for Plant response rating, Foxtail, Giant: 0 to 100 scale (0 no effect, 100 complete control)
How it was run: as §1

[9] = test system: pigweed (Amaranthus retroflexus); assay: Test A postemergence, pigweed; conditions: Postemergence
How it was run: as §1

[10] = test system: Ryegrass, Italian (Italian ryegrass, Lolium multiflorum); assay: Test A preemergence, Ryegrass, Italian; conditions: Preemergence; for Ryegrass, Italian plant response rating: 125 g ai/ha, visual injury on 0 to 100 scale (0 no effect, 100 complete control), approximately 10 days; for Plant response rating, Ryegrass, Italian: 0 to 100 scale (0 no effect, 100 complete control)
How it was run: as §1

[11] = test system: galium (catchweed bedstraw, Galium aparine); assay: Test A postemergence, galium; conditions: Postemergence
How it was run: as §2

[12] = test system: ragweed (common ragweed, Ambrosia artemisiifolia); assay: Test A preemergence, ragweed; conditions: Preemergence; for Ragweed plant response rating: 125 g ai/ha, visual injury on 0 to 100 scale (0 no effect, 100 complete control), approximately 10 days; for Plant response rating, Ragweed: 0 to 100 scale (0 no effect, 100 complete control)
How it was run: as §1

kochia (Bassia scoparia) [13] = assay: Test A postemergence, kochia; conditions: Postemergence
How it was run: as §1

[14] = test system: Ryegrass, Italian (Italian ryegrass, Lolium multiflorum); assay: Test A postemergence, Ryegrass, Italian; conditions: Postemergence
How it was run: as §1

[15] = test system: wheat (Triticum aestivum); assay: Test A postemergence, wheat; conditions: Postemergence
How it was run: as §2

[16] = 125 g ai/ha, visual injury approx. 10 days, 0 to 100 scale (0 no effect, 100 complete control)
[17] = 500 g ai/ha, visual injury, 0 to 100 scale (0 no effect, 100 complete control), approx. 10 days
[18] = 31 g ai/ha, visual injury on 0 to 100 scale (0 no effect, 100 complete control), approx. 10 days
[19] = 125 g ai/ha, 0 to 100 scale (0 no effect, 100 complete control)
[20] = 31 g ai/ha, visual injury, approx. 10 days
[21] = 500 g ai/ha, visual injury vs untreated controls after approx. 10 days, 0 to 100 scale (0 no effect, 100 complete control)

## CCn1cc(-c2cc(NS(=O)(=O)C(F)(F)F)c(C)cc2C)c(=O)n(C)c1=O [Compound 32]
[1]; [16]
  Plant response rating, Blackgrass: 90
[1]; [17]
  Plant response rating, Blackgrass: 90
[2]
  Barnyardgrass plant response rating: 100
[2]; 500 g ai/ha
  Plant response rating, Barnyardgrass: 100
Kochia (Bassia scoparia) [3]
  Kochia plant response rating: 60
Kochia (Bassia scoparia) [3]; 500 g ai/ha
  Plant response rating, Kochia: 90
[4]; [16]
  Plant response rating, Ragweed: 30
[4]; [17]
  Plant response rating, Ragweed: 60
[5]
  Pigweed plant response rating: 20
[5]; 500 g ai/ha
  Plant response rating, Pigweed: 60
Corn (Zea mays); [16]
  Plant response rating, Corn: 10
Corn (Zea mays); [17]
  Plant response rating, Corn: 80
[6]; [16]
  Plant response rating, Foxtail, Giant: 90
[6]; [17]
  Plant response rating, Foxtail, Giant: 90
[7]; [16]
  Plant response rating, Barnyardgrass: 90
[7]; [17]
  Plant response rating, Barnyardgrass: 90
[8]
  Foxtail, Giant plant response rating: 100
[8]; 500 g ai/ha
  Plant response rating, Foxtail, Giant: 100
[9]; [16]
  Plant response rating, Pigweed: 10
[9]; [17]
  Plant response rating, Pigweed: 20
[10]
  Ryegrass, Italian plant response rating: 100
[10]; 500 g ai/ha
  Plant response rating, Ryegrass, Italian: 100
[11]; [16]
  Plant response rating, Galium: 70
[11]; [17]
  Plant response rating, Galium: 90
[12]
  Ragweed plant response rating: 0
[12]; 500 g ai/ha
  Plant response rating, Ragweed: 50
Kochia (Bassia scoparia) [13]; [16]
  Plant response rating, Kochia: 20
Kochia (Bassia scoparia) [13]; [17]
  Plant response rating, Kochia: 40
[14]; [16]
  Plant response rating, Ryegrass, Italian: 80
[14]; [17]
  Plant response rating, Ryegrass, Italian: 90
[15]; [16]
  Plant response rating, Wheat: 70
[15]; [17]
  Plant response rating, Wheat: 70

## Cc1cc(C)c(C2=NOC3(C2)CC(C)CC(C)C3)cc1NS(=O)(=O)C(F)(F)F (single isomer, unassigned) [Compound 167]
[1]; [18]
  Plant response rating, Blackgrass: 0
[1]; [19]
  Plant response rating, Blackgrass: 20
[2]; [20]
  Plant response rating, Barnyardgrass: 0
[2]
  Barnyardgrass plant response rating: 20
Kochia (Bassia scoparia) [3]; [20]
  Plant response rating, Kochia: 30
Kochia (Bassia scoparia) [3]
  Kochia plant response rating: 40
[4]; [18]
  Plant response rating, Ragweed: 0
[4]; [19]
  Plant response rating, Ragweed: 20
[5]; [20]
  Plant response rating, Pigweed: 0
[5]
  Pigweed plant response rating: 20
Corn (Zea mays); [18]
  Plant response rating, Corn: 0
Corn (Zea mays); [19]
  Plant response rating, Corn: 10
[6]; [18]
  Plant response rating, Foxtail, Giant: 0
[6]; [19]
  Plant response rating, Foxtail, Giant: 10
[7]; [18]
  Plant response rating, Barnyardgrass: 10
[7]; [19]
  Plant response rating, Barnyardgrass: 60
[8]; [20]
  Plant response rating, Foxtail, Giant: 0
[8]
  Foxtail, Giant plant response rating: 10
[9]; [18]
  Plant response rating, Pigweed: 20
[9]; [19]
  Plant response rating, Pigweed: 70
[10]; [20]
  Plant response rating, Ryegrass, Italian: 30
[10]
  Ryegrass, Italian plant response rating: 60
[11]; [18]
  Plant response rating, Galium: 0
[11]; [19]
  Plant response rating, Galium: 80
[12]; [20]
  Plant response rating, Ragweed: 0
[12]
  Ragweed plant response rating: 0
Kochia (Bassia scoparia) [13]; [18]
  Plant response rating, Kochia: 10
Kochia (Bassia scoparia) [13]; [19]
  Plant response rating, Kochia: 40
[14]; [18]
  Plant response rating, Ryegrass, Italian: 0
[14]; [19]
  Plant response rating, Ryegrass, Italian: 20
[15]; [18]
  Plant response rating, Wheat: 0
[15]; [19]
  Plant response rating, Wheat: 30

## COc1ccnn(-c2cc(NS(=O)(=O)C(F)(F)F)c(C)cc2C)c1=O [Compound 60]
[1]; [16]
  Plant response rating, Blackgrass: 40
[1]; [21]
  Blackgrass plant response rating: 70
[2]
  Barnyardgrass plant response rating: 90
[2]; 500 g ai/ha
  Plant response rating, Barnyardgrass: 90
Kochia (Bassia scoparia) [3]
  Kochia plant response rating: 90
Kochia (Bassia scoparia) [3]; 500 g ai/ha
  Plant response rating, Kochia: 90
[4]; [16]
  Plant response rating, Ragweed: 50
[4]; [21]
  Ragweed plant response rating: 70
[5]
  Pigweed plant response rating: 100
[5]; 500 g ai/ha
  Plant response rating, Pigweed: 100
Corn (Zea mays); [16]
  Plant response rating, Corn: 10
Corn (Zea mays); [21]
  Corn plant response rating: 60
[6]; [16]
  Plant response rating, Foxtail, Giant: 60
[6]; [21]
  Foxtail, Giant plant response rating: 90
[7]; [16]
  Plant response rating, Barnyardgrass: 70
[7]; [21]
  Barnyardgrass plant response rating: 70
[8]
  Foxtail, Giant plant response rating: 80
[8]; 500 g ai/ha
  Plant response rating, Foxtail, Giant: 90
[9]; [16]
  Plant response rating, Pigweed: 80
[9]; [21]
  Pigweed plant response rating: 90
[10]
  Ryegrass, Italian plant response rating: 80
[10]; 500 g ai/ha
  Plant response rating, Ryegrass, Italian: 90
[11]; [16]
  Plant response rating, Galium: 90
[11]; [21]
  Galium plant response rating: 90
[12]
  Ragweed plant response rating: 30
[12]; 500 g ai/ha
  Plant response rating, Ragweed: 70
Kochia (Bassia scoparia) [13]; [16]
  Plant response rating, Kochia: 40
Kochia (Bassia scoparia) [13]; [21]
  Kochia plant response rating: 80
[14]; [16]
  Plant response rating, Ryegrass, Italian: 70
[14]; [21]
  Ryegrass, Italian plant response rating: 80
[15]; [16]
  Plant response rating, Wheat: 50
[15]; [21]
  Wheat plant response rating: 70
